Where two headings read alike, the source gives them in different places.
Columns and labels:
Experiment in all cases: microbe, parasite or virus in culture
Settings in all cases: Hepatitis C virus
[1] = test system: stable HCV 1a RLuc replicon cells (genotype 1a H77 replicon); format: cell-based
[2] = test system: stable HCV 2a JFH-1 Rluc replicon cells (L31 present in NS5A); format: cell-based
[3] = test system: NS5A chimeric genotype 1b Con1 replicon with genotype 3a S52 strain NS5A gene; format: cell-based, HCV
How it was run: (§1)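 Genotype 3a (S52) and 4a (ED43) NS5A chimeras use 1b Con1 Pi-RLuc replicons, transfected transiently; 2b MD2b-1 NS5A chimera (M31) uses 2a JFH-1 RLuc-Neo replicon, transient or stable.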

[4] = test system: NS5A chimeric genotype 2a JFH-1 replicon with genotype 2a J6 strain NS5A gene (M31 present); format: cell-based, HCV
[5] = test system: NS5A chimeric genotype 2a JFH-1 replicon with genotype 2b MD2b-1 strain NS5A gene (M31 present); format: cell-based, HCV
How it was run: as §1

[6] = test system: NS5A chimeric genotype 1b Con1 replicon with genotype 4a ED43 strain NS5A gene; format: cell-based, HCV
[7] = test system: 1a Pi-Rluc replicon with Q30R in genotype 1a NS5A; format: cell-based, HCV
How it was run: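 Renilla luciferase replicon assay: 1a Pi-RLuc replicon carrying NS5A Q30R, transfected transiently into cured-51 (Huh-7-derived) cells.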

| Structure (SMILES) | EC50 ([1]; read-out: 1a) | EC50 ([1]; read-out: 1a (nM)) | EC50 ([2]; read-out: 2a JFH) | EC50 ([2]; read-out: 2a JFH (nM)) | EC50 ([3]; read-out: 3a) | EC50 ([3]; read-out: 3a (nM)) | EC50 ([4]; read-out: 2a J6) | EC50 ([4]; read-out: 2a J6 (s) (nM)) | EC50 ([4]; read-out: 2a Jb (t) (nM)) | EC50 ([5]; read-out: 2b) | EC50 ([5]; read-out: 2b (s) (nM)) | EC50 ([5]; read-out: 2b (t) (nM)) | EC50 ([6]; read-out: 4a) | EC50 ([6]; read-out: 4a (s) (nM)) | EC50 ([6]; read-out: 4a (t) (nM)) | EC50 ([7]; read-out: 1a Q30R) | EC50 ([7]; read-out: 1a Q30R (nM)) |
| --- | --- | --- | --- | --- | --- | --- | --- | --- | --- | --- | --- | --- | --- | --- | --- | --- | --- |
| COC(=O)N[C@H](C(=O)N1CCC[C@H]1c1ncc(-c2ccc3c(c2)COc2cc4c(ccc5nc([C@@H]6C[C@H](C)CN6C(=O)[C@H](NC(=O)OC)c6ccccc6)[nH]c54)cc2-3)[nH]1)C(C)C [Example MY, Methyl {2-[2-{9-[2-(1-{2-[(methoxycarbonyl)amino]-3-methylbutanoyl}pyrrolidin-2-yl)-1H-imidazol-5-yl]-1,11-dihydroisochromeno[4′,3′:6,7]naphtho[1,2-d]imidazol-2-yl}-4-(methyl)pyrrolidin-1-yl]-2-oxo-1-phenylethyl}carbamate] | < 1 nM | 0.016 nM | < 1 nM | 0.005 nM | < 1 nM | 0.01 nM | < 1 nM | 0.165 nM | 0.047 nM | < 1 nM | 0.047 nM | 0.016 nM | < 1 nM | 0.02 nM | 0.008 nM | < 1 nM | 0.024 nM |
| COC(=O)N[C@H](C(=O)N1C[C@@H](C)C[C@H]1c1nc2ccc3cc4c(cc3c2[nH]1)OCc1cc(-c2cnc([C@@H]3CCCN3C(=O)[C@H](NC(=O)OC)c3ccccc3)[nH]2)ccc1-4)C(C)C [Example NB, Methyl {(1R)-2-[(2S)-2-(5-{2-[(2S,4S)-1-{(2S)-2-[(methoxycarbonyl)amino]-3-methylbutanoyl}-4-methylpyrrolidin-2-yl]-1,11-dihydroisochromeno[4′,3′:6,7]naphtho[1,2-d]imidazol-9-yl}-1H-imidazol-2-yl)pyrrolidin-1-yl]-2-oxo-1-phenylethyl}carbamate] | < 1 nM | 0.01 nM | < 1 nM | 0.004 nM | < 1 nM | 0.011 nM | < 1 nM | 0.138 nM | 0.02 nM | < 1 nM | 0.039 nM | 0.007 nM | < 1 nM | 0.025 nM | 0.023 nM | < 1 nM | 0.034 nM |
| COC(=O)N[C@H](C(=O)N1C[C@@H](C)C[C@H]1c1nc2ccc3cc4c(cc3c2[nH]1)OCc1cc(-c2cnc([C@@H]3CC[C@H](C)N3C(=O)[C@@H](NC(=O)OC)C(C)C)[nH]2)ccc1-4)C(C)C [Example NC, Methyl {(2S)-1-[(2S,5S)-2-(5-{2-[(2S,4S)-1-{(2S)-2-[(methoxycarbonyl)amino]-3-methylbutanoyl}-4-methylpyrrolidin-2-yl]-1,11-dihydroisochromeno[4′,3′:6,7]naphtho[1,2-d]imidazol-9-yl}-1H-imidazol-2-yl)-5-methylpyrrolidin-1-yl]-3-methyl-1-oxobutan-2-yl}carbamate] | < 1 nM | 0.007 nM | < 1 nM | 0.005 nM | < 1 nM | 0.014 nM | < 1 nM | 0.762 nM | 0.089 nM | < 1 nM | 0.191 nM | 0.068 nM | < 1 nM | 0.026 nM | 0.011 nM | < 1 nM | 0.06 nM |
| COC(=O)N[C@H](C(=O)N1C[C@@H](C)C[C@H]1c1ncc(-c2ccc3c(c2)COc2cc4c(ccc5nc([C@@H]6C[C@H](C)CN6C(=O)[C@@H](NC(=O)OC)C(C)C)[nH]c54)cc2-3)[nH]1)C(C)C [Example ND, Methyl {(2S)-1-[(2S,5S)-2-(5-{2-[(2S,4S)-1-{(2S)-2-[(methoxycarbonyl)amino]-3-methylbutanoyl}-4-methylpyrrolidin-2-yl]-1,11-dihydroisochromeno[4′,3′:6,7]naphtho[1,2-d]imidazol-9-yl}-1H-imidazol-2-yl)-4-methylpyrrolidin-1-yl]-3-methyl-1-oxobutan-2-yl}carbamate] | < 1 nM | 0.02 nM | < 1 nM | 0.014 nM | < 1 nM | 0.035 nM | < 1 nM | 2.34 nM | 0.314 nM | < 1 nM | 1.32 nM | 0.27 nM | < 1 nM | 0.044 nM | 0.031 nM | < 1 nM | 0.057 nM |
| COC(=O)N[C@H](C(=O)N1C[C@@H](C)C[C@H]1c1ncc(-c2ccc3c(c2)COc2cc4c(ccc5nc([C@@H]6C[C@H](C)CN6C(=O)[C@H](NC(=O)OC)c6ccccc6)[nH]c54)cc2-3)[nH]1)C(C)C [Example NF, Methyl {(2S)-1-[(2S,4S)-2-(5-{2-[(2S,4S)-1-{(2R)-2-[(methoxycarbonyl)amino]-2-phenylacetyl}-4-methylpyrrolidin-2-yl]-1,11-dihydroisochromeno[4′,3′:6,7]naphtho[1,2-d]imidazol-9-yl}-1H-imidazol-2-yl)-4-methylpyrrolidin-1-yl]-3-methyl-1-oxobutan-2-yl}carbamate] | < 1 nM | 0.011 nM | < 1 nM | 0.006 nM | < 1 nM | 0.017 nM | < 1 nM | 0.218 nM | 0.031 nM | < 1 nM | 0.064 nM | 0.018 nM | < 1 nM | 0.012 nM | 0.009 nM | < 1 nM | 0.017 nM |
| COC(=O)N[C@H](C(=O)N1[C@@H](C)CC[C@H]1c1ncc(-c2ccc3c(c2)COc2cc4c(ccc5nc([C@@H]6CC[C@H](C)N6C(=O)[C@@H](NC(=O)OC)C(C)C)[nH]c54)cc2-3)[nH]1)C(C)C [Example NG, Methyl {(2S)-1-[(2S,5S)-2-(5-{2-[(2S,5S)-1-{(2S)-2-[(methoxycarbonyl)amino]-3-methylbutanoyl}-5-methylpyrrolidin-2-yl]-1,11-dihydroisochromeno[4′,3′:6,7]naphtho[1,2-d]imidazol-9-yl}-1H-imidazol-2-yl)-5-methylpyrrolidin-1-yl]-3-methyl-1-oxobutan-2-yl}carbamate] | < 1 nM | 0.006 nM | < 1 nM | 0.01 nM | < 1 nM | 0.02 nM | < 1 nM | 1.67 nM | 0.37 nM | < 1 nM | 0.135 nM | 0.063 nM | < 1 nM |  | 0.008 nM | < 1 nM | 0.243 nM |
| CC[C@H](C)[C@H](NC(=O)OC)C(=O)N1C[C@@H](COC)C[C@H]1c1nc2ccc3cc4c(cc3c2[nH]1)OCc1cc(-c2cnc([C@@H]3CC[C@H](C)N3C(=O)[C@@H](NC(=O)OC)[C@@H](C)CC)[nH]2)ccc1-4 [Example NJ, Methyl {(2S,3S)-1-[(2S,5S)-2-(5-{2-[(2S,4S)-1-{(2S,3S)-2-[(methoxycarbonyl)amino]-3-methylpentanoyl}-4-(methoxymethyl)pyrrolidin-2-yl]-1,11-dihydroisochromeno[4′,3′:6,7]naphtho[1,2-d]imidazol-9-yl}-1H-imidazol-2-yl)-5-methylpyrrolidin-1-yl]-3-methyl-1-oxopentan-2-yl}carbamate] | < 1 nM | 0.007 nM | < 1 nM | 0.007 nM | < 1 nM | 0.019 nM | < 1 nM | 0.939 nM | 0.099 nM | < 1 nM | 0.416 nM | 0.094 nM | < 1 nM | 0.017 nM |  | < 1 nM | 0.025 nM |

— patent publication US8575135B2 (Gilead Sciences, Inc., priority 2011, dated 2013)
